Measured values taken from US20030077653A1, “Method for the identification of active site protease inactivators” (The University of Georgia Research Foundation, Inc., priority 2000, published 2003).
Read-outs that look alike come from different tables or passages of the source. Starred links: 1 amine or outer side, 2 acyl side, 3 side chain; linkers in the order of their positions; H or OH if unused. Residues, ends and D or L forms follow the SMILES beside them. *: point of attachment. AFC = O=c1cc(C(F)(F)F)c2ccc(N*)cc2o1; Suc = O=C(CCC(=O)[*:2])[*:1]; Cbz = O=C(OCc1ccccc1)*

Legend:
[1] = tested on: T solium purified cysteine protease; test: Human IgG degradation assay (western blot; Step IV); assay type: biochemical, Taenia solium; conditions: 18 hrs, 37° C.
Description: FIG.6. IgG degradation of heavy chain by purified cysteine protease of Taenia solium. human IgG was incubated for 18 hours with T. solium purified cysteine protease (CP). Incubated tubes were subsequently fractionated by SDS-PAGE under reducing conditions, blotted onto PVDF membrane, and visualized using biotinylated anti-IgG (heavy chain/light chain), biotin-peroxidase conjugated-strepavidin complex and enhanced chemiluminescence. Bands represent heavy chains.
To conduct this assessment, a western blot was performed. IgG digestion was detected by incubating 20 μl of T solium purified enzyme or T solium extract with 1 μg of human IgG (Sigma, St. Louis) in a fmal volume of 100 μl of assay buffer. Exogenous thiol activation was assessed by incubating the assay in the presence or absence of cysteine. The catalytic class of the IgG protease was determined by pre-incubating the following proteinase inhibitors at their active concentrations, with the enzyme: E 64 (10^−6 M, cysteine proteinases), phenylmethylsulfonyl fluoride (PMSF) (10^−3 M, serine proteinases), pepstatin A (10^−6 M, aspartic proteinases), and 1,10 phenanthroline (10^−3 M, metalloproteinases), and the vehicle, Mu-Leu-Tyr-AFC (10^−3 M). After addition of IgG, the assay was incubated overnight (37° C., 18 hrs). […]

Cathepsin H = molecular target: T1, Cathepsin H (Homo sapiens, UniProt P09668); test: Differential cleavage (selectivity) test; assay type: biochemical; conditions: vehicle 4×10^−5 M; pH 6.8, L-R-AFC
T1 sequence (P09668 98-335): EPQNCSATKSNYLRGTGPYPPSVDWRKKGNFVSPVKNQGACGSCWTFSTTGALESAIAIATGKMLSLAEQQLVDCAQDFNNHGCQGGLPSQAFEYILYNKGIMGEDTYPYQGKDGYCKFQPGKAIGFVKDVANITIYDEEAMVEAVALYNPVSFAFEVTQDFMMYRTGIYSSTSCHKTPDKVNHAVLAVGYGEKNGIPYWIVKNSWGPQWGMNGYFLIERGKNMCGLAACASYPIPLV
Description: (§1) In order to perform the assay, the vehicle (for Step VI) or inhibitor (for Step IX) were incubated with the appropriate substrate in the correct assay buffer and allowed to equilibrate. Subsequently, the protease was added, and the assay was allowed to incubate for an appropriate time. The concentrations used in this experiment were as follows: Vehicle was set up at 4×10^−5 M in final assay buffer; Inhibitor was set up at 3×10^−10 M in the final assay buffer. Accordingly, the dosages employed should be the minimal amount of vehicle or inhibitor necessary to induce inhibition. […] Substrates were set up based upon the preferred substrate for cleavage of the particular enzyme.
(§2) Positive controls were set up similarly as described for test controls, except that solvent was added in substitution for the inhibitor or vehicle (in a volume equal to the volume of inhibitor or vehicle addition). All of the inhibitors and vehicles could be dissolved in dimethylsulfoxide (DMSO), and therefore, this was the solvent of choice. Negative controls were set up by adding the inhibitor or vehicle and the preferred substrates in a tube without the protease. All potential non-proteolytic liberation of AFC was therefore controlled for in this tube (a feature which also insured stability of the AFC substrates, since these substrates will freely liberate AFC when unstable).
(§3) All controls were set up in triplicate, and experiments were repeated a minimum of five times.
(§4) Percent inhibition was calculated as: [formula]
(§5) In this preliminary test, we employed the following human-derived enzymes (with indicated mechanistic class): Cathepsin B (cysteine), Cathepsin L (cysteine), Cathepsin H (cysteine), Cathepsin D (aspartic) Trypsin (serine), the purified Taenia solium cysteine protease, and the Taenia solium crude mix. Cathepsin B was prepared in an assay buffer of 10 mM L-cysteine in 0.4 M Citrate buffer, pH 6. 1, using Z-ARR-AFC as the cleavage substrate. Cathepsin L was prepared in an assay buffer of 10 mM L-cysteine in 0.4 M Citrate buffer, pH 5.5, using Z-FR-AFC as the cleavage substrate. Cathepsin H was prepared in an assay buffer of 10 mM L-cysteine in 0.15 M PBS buffer, pH 6.8, using L- R-AFC as the cleavage substrate. Cathepsin D was prepared in an assay buffer of 0.15 M PBS, pH 7.1, using Z-RGFFP-AFC as the cleavage substrate. Trypsin was prepared in an assay buffer of 0.15 M PBS, pH 8.0, supplemented with 100 mM CaCl2 and with Z-R-AFC as the cleavage substrate. Enzyme was incubated so that it was at least 50 times less than the concentration of substrate in order to insure saturating conditions.

Cathepsin L = Cathepsin L (Homo sapiens, UniProt P07711); test: Differential cleavage (selectivity) test; assay type: biochemical; conditions: vehicle 4×10^−5 M; pH 5.5, Z-FR-AFC
Cathepsin L, sequence (P07711 114-333): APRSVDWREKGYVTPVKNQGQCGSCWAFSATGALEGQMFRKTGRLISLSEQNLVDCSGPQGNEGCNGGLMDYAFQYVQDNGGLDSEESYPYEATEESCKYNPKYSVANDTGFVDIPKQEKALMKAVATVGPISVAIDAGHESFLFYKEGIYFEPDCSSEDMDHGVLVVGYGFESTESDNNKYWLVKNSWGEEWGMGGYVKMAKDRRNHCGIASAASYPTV
Description: as §1, §2, §3, §4, §5

Cathepsin D = Cathepsin D (Homo sapiens, UniProt P07339); test: Differential cleavage (selectivity) test; assay type: biochemical; conditions: vehicle 4×10^−5 M; pH 7.1, Z-RGFFP-AFC
Cathepsin D, sequence (P07339 65-412): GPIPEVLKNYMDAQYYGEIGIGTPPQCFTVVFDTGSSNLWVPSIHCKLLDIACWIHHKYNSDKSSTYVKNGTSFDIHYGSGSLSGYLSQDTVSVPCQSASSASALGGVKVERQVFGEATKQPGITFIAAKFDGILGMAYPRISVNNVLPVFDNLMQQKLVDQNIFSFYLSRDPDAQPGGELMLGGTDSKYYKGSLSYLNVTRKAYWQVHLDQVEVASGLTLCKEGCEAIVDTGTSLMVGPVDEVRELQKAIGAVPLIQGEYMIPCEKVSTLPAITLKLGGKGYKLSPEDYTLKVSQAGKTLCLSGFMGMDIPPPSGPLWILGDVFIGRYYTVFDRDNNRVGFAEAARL
Description: as §1, §2, §3, §4, §5

Cathepsin B = Cathepsin B (Homo sapiens, UniProt P07858); test: Differential cleavage (selectivity) test; assay type: biochemical; conditions: vehicle 4×10^−5 M; pH 6.1, Z-ARR-AFC
Description: as §1, §2, §3, §4, §5

[2] = tested on: purified Taenia solium cysteine protease; test: Screen of AFC-linked synthetic substrates for cleavage (Step II); assay type: biochemical; conditions: pH 4.9, 18 h, 37° C
Description: In this step, the most efficacious substrate for detection of the cysteine protease (high Kcat substrate) was determined in vitro along with those substrates which were not well cleaved (low kcat substrates). From this point forth, the following conditions refer to all assays: “assay buffer” refers to 0.4 M Citrate, pH 4.9 (the pH optima of the protease). Incubation time was 18 hours at 37° C. These conditions were determined by our preliminary data to be best for kinetic evaluation of the protease. […] The experiments were conducted in […] Borosilicate mini-culture tubes (Fisher Scientific), and a fluorometer (Turner) was employed for detection of AFC cleavage.
Approximately 1 ug (or a proteolytically detectable amount) of the purified target cysteine protease was incubated individually, with 1 μg of each of the available substrates in 500 μL of assay buffer. During this setup, the substrate was pre-incubated in the assay buffer for a short period of time (20 minutes) in order to reach an equilibrated status before the addition of the protease. Cleavage assessments were based upon the property of the protease to cleave synthetic peptide substrates linked at the C-terminus to 7-Amino-4-Trifluoromethyl Coumarin (AFC) as previously described. AFC linked tripeptides, dipeptides, and monopeptides, (with a variety of permutations at P3-P1) were available from Enzyme Systems Products (Livermore, CA), and were used as the source of the subset. Following incubation of enzyme preparations overnight (18 h, 37 ° C.) with peptide in assay buffer (Citrate, pH 4.9, supplemented with 0.01 M cysteine), free AFC concentrations were measured fluorometrically (excitation […]). The proteolytic cleavage released the AFC group, which was measurable as a free molecule by a standard fluorometer and converted into molar quantities, based upon a previously established standard curve. The simplicity of AFC detection by the fluorometer was a key factor which quickened and simplified the procedures.
In the assay, 1 ug of the purified Taenia cysteine protease was added to a saturating amount of Z-Phe-Arg-AFC (4×10^−5 M) in assay buffer. The experiment was conducted in triplicate and repeated at least 5 times until we were certain that variability in AFC cleavage was not statistically significant.
Vmax was calculated for the cleavage of substrates by the purified target protease and Vmax was calculated for substrates cleaved by the crude mix protease using conventional kinetic modeling calculations already described in the art.

Trypsin = test: Differential cleavage (selectivity) test; assay type: biochemical, human; conditions: vehicle 4×10^−5 M; pH 8.0, Z-R-AFC
Description: as §1, §2, §3, §4, §5

Taenia crassiceps cysts [3] = test: Short-term prophylactic protection of BALB/c mice from cysticercosis infection; assay type: in vivo; conditions: pre-injected two days, 10 T. crassiceps cysts/mouse, dosed daily four weeks, intraperitoneal; vs untreated controls
Description: FIG. 8. […] Each treated mouse was pre-injected intraperitoneally with inhibitor for two days. During treatment phase, each treated mouse received 1.48×10^−2 μg/μl of N2 daily for three weeks and every other day during the last week. Injections were carried out in 150 μl of dimethyl sulfoxide for each mouse. Both treated groups and positive controls were challenged intraperitoneally with 10 Taenia crassiceps cysts in 200 μl 0.15M PBS at the time of initial infection. After one month of infection, both groups were euthanized and cysts removed by washing with sterile 0.15M PBS. A minimum of two attached cysts were scored as multilobed (ML). […] (B) Graphically represents the effect of protease inhibitor treatment of BALB/c mice challenged with Taenia crassiceps cysts over a long-term period. Mice were divided into treated and untreated groups (5 mice/group).Each mouse in the treated group was pre-injected intraperitoneally with inhibitor for two days. […] Cysts were then counted by visual inspection. […]
Based upon the premise that the cyst wall cysteine protease may serve a critical finction to the life cycle of the Taenia cyst, we tested our most efficacious inhibitors, LLL-FMK and LLY-FMK (K-Pyr was used as a control), for their abilities to protect mice from cysticercosis infection. […] After one month, the mice were euthanized and the cysts counted. […]

Taenia crassiceps cysts [4] = test: Scanning electron microscopy of surfaces of cysts removed from treated mice; assay type: in vivo
From the text: FIG. 9. Scanning electron microscopy of the surface of cysts removed from untreated mice versus cysts removed from treated mice. Magnifications are identical for both slides in each panel. panel A (4000×). […] No immune cells were seen on cysts removed from untreated mice. Panel B (25,000×). […] Microtriches in untreated cysts can be seen to be visibly longer. Visible anchors were also noted for the untreated cysts group, whereas these anchors were not observed in microtriches from treated cysts.
For example, we hypothesized that the cysteine protease was a key parasitic molecule to allow the cyst to evade the host immune response, by cleaving host antibodies. By inhibiting the Taenia cysteine protease with Z-LLY-FMK, we hypothesized that host immunoglobulin could now bind the parasites, and initiate immunological responses (e.g., complement via IgG2a) which would cause damage to the cyst wall. […] We identified macrophages, neutrophils, fibroblasts, and collagenous deposits on the cyst surfaces from treated mice, in comparison to their absence on cysts from untreated mice. General surface atrophy was also apparent. […] Breaks in the integrity of the cyst surface were also noted for the cysts removed from treated mice. […] Cysts removed from untreated mice were characterized by no immune cells, intact and longer microtriches, and homogeneity of the cyst surface.

| Compound | inhibition of cleavage of human IgG [1] | Percent inhibition of Cathepsin H (cysteine) (Cathepsin H) [%] | Percent inhibition of Cathepsin L (cysteine) (Cathepsin L) [%] | Percent inhibition of Cathepsin D (aspartic) (Cathepsin D) [%] | Percent inhibition of Cathepsin B (cysteine) (Cathepsin B) [%] | cleavage as substrate (Vmax) [2] | Percent inhibition of Trypsin (serine) (Trypsin) [%] | other results |
| --- | --- | --- | --- | --- | --- | --- | --- | --- |
| CC(C)C[C@H](NC(=O)[C@H]1O[C@@H]1C(=O)O)C(=O)NCCCCN=C(N)N [E64] | Inhibition was noted |  |  |  |  |  |  |  |
| CC(C)CC(NC(=O)CCC(=O)O)C(=O)NC(Cc1ccc(O)cc1)C(=O)Nc1ccc2c(C(F)(F)F)cc(=O)oc2c1 (stereo not drawn) [Suc-Leu-Tyr-AFC] (Suc-Leu-Tyr-{AFC}; configuration not given here) | ability to inhibit |  |  |  |  |  |  |  |
| CC(C)C[C@H](NC(=O)OCc1ccccc1)C(=O)N[C@@H](CC(C)C)C(=O)N[C@@H](CC(C)C)C(=O)Nc1ccc2c(C(F)(F)F)cc(=O)oc2c1 [Z-LLL-AFC, Z-Leu- Leu-Leu-AFC] (Cbz-Leu-Leu-Leu-{AFC}) |  | 0 | 0 | 0 | 0 | noncleavable | 0 |  |
| CC(C)C[C@H](NC(=O)OCc1ccccc1)C(=O)N[C@@H](CC(C)C)C(=O)N[C@@H](Cc1ccc(O)cc1)C(=O)Nc1ccc2c(C(F)(F)F)cc(=O)oc2c1 [Z-LLY-AFC, Z-Leu-Leu-Tyr-AFC] (Cbz-Leu-Leu-Tyr-{AFC}) |  | 0 | 0 | 0 | 0 | noncleavable | 0 |  |
| Leu-Phe-Ketoamide-Pyridyl [K-Pyr] |  |  |  |  |  |  |  | % Prophylactic protection of BALB/c mice (Taenia crassiceps cysts [3]): 40%; Immune cells observed by SEM on cyst surfaces (Taenia crassiceps cysts [4]): None; Immune cells observed by SEM on cyst surfaces (Taenia crassiceps cysts [4]; listed as K- Pyr): neither adherent immune cells nor damaged tegunent |
